# Measured values reported in patent US20220277805A1, “GENETIC MUTATIONAL ANALYSIS” (BioSkryb Genomics, Inc., priority 2019, published 2022).
# Entries after “also recorded” stand apart in the source; their conditions may differ.
# What was measured:
# cord blood CD34+ cells = assay: direct measurement of environmental mutagenicity (DMEM), single-cell PTA sequencing; type: cell-based, human; settings: for enrichment of cytosine variants in DNase I hypersensitivity sites: compared to DH sites of CD34+ cells, Roadmap Epigenomics Project, FIG. 12D, 12E
# Description: PTA was used to conduct a novel mutagenicity assay that provides a framework for performing high-resolution, genome wide human toxicogenomics studies. Previous studies such as the Ames test, relies on bacterial genetics to make measurements that are assumed to be representative of human cells while only providing limited information on the mutation number and patterns induced in each exposed cell. To overcome these limitations, a human mutagenesis system “direct measurement of environmental mutagenicity (DMEM)” was developed, wherein single human cells was exposed to an environmental compound, isolated as single cells, and subjected to single-cell sequencing to identify the new mutations induced in each cell.
# Umbilical cord blood cells that express the stem/progenitor marker CD34 were exposed to increasing concentrations of the direct mutagen N-ethyl-N-nitrosourea (ENU).
# ENU (CAS 759-73-9) and D-mannitol (CAS 69-65-8) were put into solution at their maximal solubility. Fresh anticoagulant-treated umbilical cord blood (CB) was obtained from St. Louis Cord Blood Bank. CB was diluted 1:2 with PBS and mononuclear cells (MNCs) were isolated by density gradient centrifugation on Ficoll-Paque Plus according to manufacturer's instructions. CB MNCs expressing CD34 were then immunomagnetically selected using the human CD34 microbead kit and magnetic cell sorting (MACS) system as per the manufacturer. Cell count and viability were assessed using the Luna FL cell counter. CB CD34+ cells were seeded at a density of 2.5×10^4 cells/mL in StemSpan SFEM supplemented with 1× CD34+ Expansion supplement, 100 units/mL of penicillin, and 100 ug/mL of streptomycin where they expanded for 96 hours before proceeding to mutagen exposure.
# Expanded cord blood CD34+ cells were cultured in StemSpan SFEM supplemented with 1× CD34+ Expansion Supplement, 100 units/mL of penicillin, and 100 ug/mL of streptomycin. The cells were exposed to ENU at concentrations of 8.54, 85.4, and 854 uM, D-mannitol at 1152.8, and 11528 uM, or 0.9% sodium chloride (vehicle control) for 40 hours. Single-cell suspensions from drug-treated cells and vehicle control samples were harvested and stained for viability as described above. Single cell sorts were carried out as described above. PTA was performed and libraries were prepared using a simplified and improved protocol as per the general methods of the methods described herein, and Example 2.
# Data acquired from cells in the DMEM experiments were trimmed using Trimmomatic, aligned to GRCh38 using BWA, and further processed using GATK 4.0.1 best practices without deviation from the recommended parameters. Genotyping was performed using HaplotypeCaller where joint genotypes were again filtered using standard parameters. […] The trinucleotide context of each SNV was determined by extracting the surrounding bases from the reference genome using bedtools. Mutation counts and context were visualized using ggplot2 and heatmap2 in R.
# To determine whether mutations were enriched in DNase I hypersensitivity sites (DHS) in CD34+ cells, the proportion of SNVs in each sample that overlap with DHS sites from 10 CD34+ primary cell datasets produced by the Roadmap Epigenomics Project were calculated. DHS sites were extended by 2 nucleosomes, or 340 bases in either direction. Each DHS dataset was paired with a single cell sample where we determined the proportion of the human genome with at least 10× coverage in that cell which overlapped with a DHS, which was compared to the proportion of SNVs that were found within the covered DHS sites.
# mice = settings: limited sequencing of target genes; cited from earlier work
# [1] = system: clone harboring an activating KRAS mutation; assay: leukemia cells in culture exposed to standard ALL chemotherapy drugs, bulk sequencing of clones; type: cell-based; settings: FIG. 7
# Description: Given such a massive population genetic diversity, it has been hypothesized that there are clones that are more resistant to treatment within a given patient. To test that hypothesis, the sample is placed in culture and the leukemia cells are exposed to increasing concentrations of standard ALL chemotherapy drugs. […] This approach also employed bulk sequencing of the treated samples. The use of single-cell DNA sequencing in some instances allows a determination of the diversity and clonotypes of the expanding populations.
compound,measurement,setting,value
"CCN(N=O)C(N)=O [ENU, N-ethyl-N-nitrosourea]",most common mutations (base changes),cord blood CD34+ cells; FIG. 12B,"T to A (A to T), T to C (A to G), and C to T (G to A)"
same,enrichment in variant locations at DH sites,"cord blood CD34+ cells; all ENU induced mutations, FIG. 12E",No significant enrichment in variant locations at DH sites
same,enrichment of cytosine variants in DNase I hypersensitivity sites,cord blood CD34+ cells,no enrichment of cytosine variants in DNase I hypersensitivity sites was observed; also recorded: no enrichment of variants restricted to cytosines was observed in DH sites
same,enrichment of cytosine variants in DNase I hypersensitivity sites,cord blood CD34+ cells; listed as N-ethyl-N-nitrosourea,No significant enrichment of cytosine variants was observed
same,mutation number of each cell,"cord blood CD34+ cells; increasing ENU concentrations 8.54, 85.4, 854 uM, 40 hours, FIG. 12A",dose-dependent increase in mutation number of each cell
same,enrichment of variants in genomic locations with specific annotations,"cord blood CD34+ cells; relative to proportion of the genome each annotation comprises, FIG. 12F",No specific enrichment
same,preferred base changes,mice,"T to A (A to T), T to C (A to G), and C to T (G to A)"
COc1cccc2c1C(=O)c1c(O)c3c(c(O)c1C2=O)C[C@@](O)(C(C)=O)C[C@@H]3O[C@H]1C[C@H](N)[C@H](O)[C@H](C)O1 [daunorubicin],response of the clone harboring an activating KRAS mutation,[1]; in culture with drug,more sensitive; also recorded: killed
C[C@]12C=CC(=O)C=C1CC[C@@H]1[C@@H]2[C@@H](O)C[C@@]2(C)[C@H]1CC[C@]2(O)C(=O)CO [prednisolone],response of the clone harboring an activating KRAS mutation,[1]; in culture with drug,more sensitive; also recorded: killed
asparaginase,response of the clone harboring an activating KRAS mutation,[1]; lowest dose,continued to expand
